Experimental data published in US12577231B2, “Androgen receptor PROTACS” (GlaxoSmithKline Intellectual Property Development Limited, priority 2023, dated 2026).

Legend:
[1] = test system: Androgen Receptor in human prostate cancer cell lines; assay: Androgen Receptor Degradation-Imaging Assay, all prostate cancer cell lines (FIG. 2); type: cell-based; details: 16 hours treatment
Protocol: Degradation of Androgen Receptor (AR) protein in human prostate cancer cell lines (MDA-PCa-2b (AR T878A/L702H), LNCaP (AR T878A), VCaP (AR wild type and amplified) 22RV1 (AR H875Y) and PC3 (AR negative control)) treated with AR PROTACs was quantified using immunofluorescence. Prostate cancer cells were plated (MDA-PCa-2b, and VCaP 16,000 cells/well; LNCaP and 22RV1 32,000 cells/well, and PC3 8,000 cells/well) in an optical bottom 96-well cell culture plate and allowed to attach overnight. The prostate cancer cell lines were treated for 16 hours with a 10-point 3-fold dilution series (dose range=0.02 nM to 333 nM). PC3 is included as an AR negative control and not treated with compound. […] Following washes with IF buffer, cells were incubated with fluorescent secondary antibody (Goat anti-rabbit Alexa 647; commercially available from Invitrogen) and Hoechst nuclear stain (commercially available from Themo Scientific) prior to quantification of nuclear AR levels via Opera Phenix high-content fluorescent imager using a 40× water objective. […]
The averaged nuclear Alexa 647 median fluorescence intensity (MFI) of PC3 cells is subtracted from the nuclear Alexa 647 MFI of PROTAC treated and DMSO control treated cells. % AR remaining is calculated for PROTAC treatments as a percent of the DMSO control (MFI PROTAC treated/MFI DMSO control treated)*100). […]

Androgen receptor L702H = target: T1, Androgen receptor L702H (Homo sapiens, UniProt P10275, L702H); assay: Degradation of overexpressed Androgen Receptor in A549 cells (HiBiT), L702H; type: cell-based; details: A549 cells overexpressing AR L702H, cycloheximide, 24 hours
T1 construct: expressed in transfected cells; host or cells: A549, transduced, puromycin selected
T1 sequence (P10275 1-920 L702H): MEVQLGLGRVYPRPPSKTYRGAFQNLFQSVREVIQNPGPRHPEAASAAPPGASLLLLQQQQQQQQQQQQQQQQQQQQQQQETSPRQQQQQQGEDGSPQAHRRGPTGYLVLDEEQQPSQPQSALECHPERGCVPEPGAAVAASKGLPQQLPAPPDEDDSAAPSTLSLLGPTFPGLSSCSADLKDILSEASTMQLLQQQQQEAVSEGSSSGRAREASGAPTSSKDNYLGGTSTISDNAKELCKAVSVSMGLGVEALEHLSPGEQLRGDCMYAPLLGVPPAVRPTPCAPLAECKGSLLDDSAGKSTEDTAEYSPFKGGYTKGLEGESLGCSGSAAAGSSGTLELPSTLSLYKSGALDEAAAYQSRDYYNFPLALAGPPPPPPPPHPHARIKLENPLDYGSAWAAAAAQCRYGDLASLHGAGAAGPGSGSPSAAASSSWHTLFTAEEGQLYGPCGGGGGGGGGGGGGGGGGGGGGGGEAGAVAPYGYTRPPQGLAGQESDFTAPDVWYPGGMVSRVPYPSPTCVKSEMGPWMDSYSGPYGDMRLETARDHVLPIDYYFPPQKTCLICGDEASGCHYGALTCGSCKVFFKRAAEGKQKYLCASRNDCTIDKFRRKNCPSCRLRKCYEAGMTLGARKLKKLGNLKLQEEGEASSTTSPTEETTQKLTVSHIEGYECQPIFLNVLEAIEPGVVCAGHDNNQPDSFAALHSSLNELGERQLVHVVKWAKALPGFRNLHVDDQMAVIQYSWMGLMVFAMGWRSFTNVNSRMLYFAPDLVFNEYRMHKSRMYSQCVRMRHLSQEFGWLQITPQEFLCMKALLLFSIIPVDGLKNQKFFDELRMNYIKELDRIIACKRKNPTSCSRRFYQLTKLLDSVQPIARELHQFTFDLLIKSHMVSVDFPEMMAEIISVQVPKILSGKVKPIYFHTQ
Protocol: A549 cells were transduced to express wild type androgen receptor and Androgen receptor containing the following mutations (L702H, H875Y W742C W742L F877L, T878A and T878A/H875Y) with HiBiT tags. Transduced cells following puromycin selection were maintained in a humidified incubator (at 37° C. and 5% CO2 in the DMEM medium supplemented with 1% (v/v) Pen/Strep, 1% (v/v) Glutamax and 10% (v/v) FBS. A549 cells expressing each AR construct were detached from plate and counted. Cell suspensions at density 0.2 million per mL were prepared. Cell suspension was supplemented with 100 μg/mL of cycloheximide to block protein synthesis. Cells were preincubated with cycloheximide for 1 hr before seeding. Cells were seeded onto 384-well plate at density of 5,000 in 25 μL per well. A two fold serial dilution of test compounds, starting from 1 μM (row A) in 2-fold serial dilution series across the column using Tecan D300e dispenser. […]
Nano-Glo HiBiT Lytic reagent was prepared by adding LgBiT protein and Nano-Glo® substrate to lytic buffer pre-equilibrated at room temperature following manufacturer protocol (https://www.promega.co.uk/resources/protocols/technical-manuals/101/nanoglo-luciferase-assay-system-protocol). […] The plates were then centrifuged (100×G, 1 min) and incubated on shaker for 10 mins before taking readings on Pherastar Luminescence microplate reader. […]

COc1cc(O[C@H]2C(C)(C)[C@H](NC(=O)c3ccc(N4CCC(CN5CCC(n6ncc7c(N8CCC(=O)NC8=O)nccc76)CC5)CC4)c(F)c3)C2(C)C)ccc1C#N [Example 20, N-((1r,3r)-3-(4-Cyano-3-methoxyphenoxy)-2,2,4,4-tetramethylcyclobutyl)-4-(4-((4-(4-(2,4-dioxotetrahydropyrimidin-1(2H)-yl)-1H-pyrazolo[4,3-c]pyridin-1-yl)piperidin-1-yl)methyl)piperidin-1-yl)-3-fluorobenzamide]
percentage of Androgen Receptor remaining versus concentration (FIG. 2) [1]: Good reductions | Summary pXC50 (Androgen receptor L702H): 9.00
